Assays:
BuChE = experiment: In vitro autoradiography with human tissues (Alzheimer's disease or cognitively normal); format: binding; settings: 3.7 MBq, 18 hours at 37° C., maleate buffer pH 6.8, FIG. 3
Method: Human tissue from Alzheimer's disease or cognitively normal individuals was obtained from the Maritime Brain Tissue Bank (Halifax, Canada). These tissues were adjacent […] sections through areas such as the orbitofrontal cortex. The tissues were mounted on glass slides, in maleate buffer pH 6.8, and gently heated on a slide warmer until firmly adhered. The mounted tissue was rehydrated twice for 5 min, in maleate buffer pH 6.8, before placed in a coplin jar. Nine sections occupied each jar. 25 mL of maleate buffer pH 6.8 containing Phenyl 4-([^123I]iodo)phenylcarbamate (3.7 MBq) was added to the coplin jar and the tissue incubated for 18 hours at 37° C. with gentle agitation. At the completion of incubation, the tissue was rinsed twice for 1 min in distilled water and the slides dried on a slide wanner. The tissue was exposed to a high resolution phosphorimaging screen (GE Healthcare) for 22.5 hours. The screen was scanned with a typhoon 9400 imager (GE Healthcare) to produce the autoradiogram. Image contrast was adjusted with Adobe Photoshop CS5.

human serum BuChE = biological target: T1, human serum BuChE (Homo sapiens, UniProt P06276); experiment: Esterase activity assay (Ellman), enzyme deactivation over time, BuChE; format: biochemical; settings: FIG. 2
T1 construct: 0.05 units of purified human serum BuChE; from tissue; host or cells: human serum
Method: (§1) The ability of the compounds to inhibit cholinesterases was evaluated by Ellman's spectrophotometric method (Ellman, G. L., Courtney, K. D., Andres, V. Jr. and Featherstone, R. M. A new and rapid colorimetric determination of acetylcholinesterase activity. Biochemical Pharmacology, 7, 88-95 (1961)) using human recombinant AChE and. acetylthiocholine as the substrate, and human serum BuChE with butyrylthiocholine as the substrate.
(§2) To test for enzyme deactivation over time, loss of enzyme activity was monitored. Briefly, 1.35 mL of buffered DTNB solution (pH 8.0), 0.05 mL of enzyme (0.03 units of human recombinant AChE or 0.05 units of purified human serum BuChE in 0.1% aqueous gelatin containing 0.01% sodium azide) and 0.05 mL of the carbamate dissolved in 50% aqueous acetonitrile at 0.5-5 mM, depending on solubility, were combined in a stoppered cuvette of 1 cm path length. After mixing and bringing the absorbance to zero, 0.05 mL of 4.8 mM aqueous acetyl- or butyrylthiocholine substrate solution was added to the cuvette after incubation of the enzyme with carbamate and buffered DTNB for periods of 30 min or longer. A zero-time sample was also obtained by adding enzyme last to initiate reaction and the second-order rate constants for enzyme deactivation (ka values) were determined. The ka value was calculated by plotting ln (e0/et)/[I] against time, where e0 is the enzymatic activity at time zero (without preincubation of enzyme and inhibitor), et is the enzymatic activity at time t min of preincubation, and [I] is the molar concentration of inhibitor. The slope of this plot gave the second-order rate constant. Experiments were generally done at least in triplicate and the values averaged.

human recombinant AChE = human recombinant AChE (Homo sapiens, UniProt P22303); experiment: Esterase activity assay (Ellman), enzyme deactivation over time, AChE; format: biochemical; settings: FIG. 2
Method: as §1, §2

T1 sequence (P06276 29-602): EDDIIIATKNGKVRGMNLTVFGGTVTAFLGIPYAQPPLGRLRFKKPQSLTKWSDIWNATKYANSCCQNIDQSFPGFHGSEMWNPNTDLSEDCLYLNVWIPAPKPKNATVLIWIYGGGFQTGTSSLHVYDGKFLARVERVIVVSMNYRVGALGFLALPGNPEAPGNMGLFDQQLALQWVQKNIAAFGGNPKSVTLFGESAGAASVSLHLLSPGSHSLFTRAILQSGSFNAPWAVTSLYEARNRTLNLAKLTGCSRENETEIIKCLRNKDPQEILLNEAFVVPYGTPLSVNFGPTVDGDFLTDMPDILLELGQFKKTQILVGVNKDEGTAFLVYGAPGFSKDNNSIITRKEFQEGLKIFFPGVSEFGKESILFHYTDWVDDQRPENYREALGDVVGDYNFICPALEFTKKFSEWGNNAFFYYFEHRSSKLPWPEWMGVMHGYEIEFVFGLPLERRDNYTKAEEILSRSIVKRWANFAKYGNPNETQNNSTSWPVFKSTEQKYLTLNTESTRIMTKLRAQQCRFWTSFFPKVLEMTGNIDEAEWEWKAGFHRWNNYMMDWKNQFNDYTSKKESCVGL
Sequence of human recombinant AChE (P22303 32-614): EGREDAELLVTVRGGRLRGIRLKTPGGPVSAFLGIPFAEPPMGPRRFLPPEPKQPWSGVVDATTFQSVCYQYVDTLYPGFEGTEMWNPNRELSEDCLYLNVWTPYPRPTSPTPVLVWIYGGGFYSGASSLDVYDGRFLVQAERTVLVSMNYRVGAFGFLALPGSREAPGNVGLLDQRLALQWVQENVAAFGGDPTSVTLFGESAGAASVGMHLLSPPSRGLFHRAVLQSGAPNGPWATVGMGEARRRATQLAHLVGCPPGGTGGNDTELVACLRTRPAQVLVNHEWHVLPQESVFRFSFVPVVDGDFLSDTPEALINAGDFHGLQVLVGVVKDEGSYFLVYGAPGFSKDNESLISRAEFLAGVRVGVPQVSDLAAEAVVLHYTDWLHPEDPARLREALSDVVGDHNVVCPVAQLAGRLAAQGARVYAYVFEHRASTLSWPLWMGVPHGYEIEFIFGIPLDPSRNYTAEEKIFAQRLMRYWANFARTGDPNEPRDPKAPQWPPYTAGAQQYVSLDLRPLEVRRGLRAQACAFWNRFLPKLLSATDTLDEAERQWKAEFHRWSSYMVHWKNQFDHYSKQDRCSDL

SMILES: O=C(Nc1ccc(F)cc1)Oc1ccccc1
- melting point: 160 to 161 °C

SMILES: O=C(Nc1ccc([123I])cc1)Oc1ccccc1 [Phenyl 4-([^123I]iodo)phenylcarbamate]
- autoradiography: distinction of normal, normal-with-Aβ-plaques and AD brain tissue (BuChE): normal-with-Aβ-plaques and AD brain tissue can be distinguished

SMILES: O=C(Nc1ccc(I)cc1)Oc1ccccc1 [phenyl 4-(iodo)phenylcarbamate, Phenyl 4-(iodo)phenylcarbamate]
- effect on esterase activity (inhibition) (human serum BuChE): clearly has inhibitory effects
- persistence of interaction (ligand bound to enzyme) (human serum BuChE): persisted for hours
- rate of enzymatic deactivation (human serum BuChE): proceeded rapidly
- effect on esterase activity (inhibition) (human recombinant AChE): clearly has inhibitory effects
- persistence of interaction (ligand bound to enzyme) (human recombinant AChE): persisted for hours
- rate of enzymatic deactivation (human recombinant AChE): proceeded rapidly
